{
  "source": "patent US20220041578A1",
  "about": "“ISOINDOLINE COMPOUND, AND PREPARATION METHOD, PHARMACEUTICAL COMPOSITION, AND APPLICATION OF ISOINDOLINE COMPOUND” (Shanghai Institute of Meteria Medica, Chinese Academy of …, priority 2018, published 2022)",
  "type_in_all_cases": "cell-based",
  "key": {"[1]": {"tested_on": "prostate cancer cells PC-3", "assay": "Proliferation of other tumor cells, PC-3 (WST-8)", "settings": "Homo sapiens, 96 h, PC-3 cells, 4 days, read-out: Inhibitory activity on proliferation, PC-3 (IC50)", "procedure": "The human triple negative breast cancer cells MDA-MB-468 and MDA-MB-231 used in this experiment were purchased from the Shanghai Cell Bank, in which L-15 medium added with 10% fetal bovine serum (FBS) and 1% double antibody was used. At 37° C., MDA-MB-468 and MDA-MB-231 cells were cultured in an incubator without CO2. Colorectal cancer cells HCT-116 were cultured in McCOY's 5A medium with 1% double antibody and 10% fetal bovine serum (FBS); prostate cancer cells DU145 were cultured in MEM medium with 1% double antibody and 10% fetal bovine serum (FBS); prostate cancer cells PC-3 were cultured in F-12 K medium with 1% double antibody and 10% fetal bovine serum (FBS); grew at 37° C., 5% CO2.\nIn the cell activity test experiment, 90 μL cell suspension with appropriate concentration was added to a 96-well cell culture plate according to the cell growth, each compound to be tested was gradient diluted with the corresponding medium, 10 μL diluted compound was added to 90 μL cells, and then incubated at 37° C. for 4 days. Cell proliferation was analyzed by WST-8, which could be reduced by lactate dehydrogenase in the cells to a yellow formazan. 10 μL of WST-8 reagent (DOJINDO) was added to the cells and reacted for more than 1 hour at 37° C., DMSO-treated cells were used as […]. The absorption value of 490 nm was read by enzyme-labeled plate, and the absorption value of 690 nm was taken as the background value, and OD490-OD690 was taken as the final original data, and the data was processed by GraphPad Prism6 software. The formula for calculating the inhibition rate of the compound was: inhibition rate=(ODDMSO−ODcompound)/(ODDMSO−Oblank)×100%. The compound's proliferation inhibition IC50 was fitted by Graph Pad Prism 5.0. The experiment was repeated three times, and three parallel experiments were used to calculate the average and standard deviation each time. The cell viability test results were shown in Table 4: A means cell viability IC50<1 μM, B means cell viability 1 μM≤IC50≤20 μM, C means cell viability IC50>20 μM, NT means not tested."}, "Mino cells": {"tested_on": "Mino cells", "assay": "Effect of the compound on the proliferation of Mino cells (MTS)", "settings": "Homo sapiens, 72 h, 3 days, read-out: Inhibitory activity (IC50)", "summary_of_the_method": "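Mino cells, 8000/well, treated 3 days at 37 °C/5% CO2 with 5-fold compound dilutions from 10 mM stock (0.2% DMSO final). MTS added for 3-4 h; OD490 minus OD690 read, inhibition relative to DMSO and blank, IC50 fitted. Three repeats, each in triplicate.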"}, "TNF-α": {"tested_on": "TNF-α", "assay": "TNF-α activity inhibition experiment in LPS-stimulated PBMC (ELISA)", "settings": "Homo sapiens, compound 10 nM, LPS 1 ug/ml, 72 hours, read-out: Inhibition rate of TNF-a (%)", "procedure": "(§1) All operations of this experiment were carried out according to the conventional experimental process of this kind of experiment at present. Peripheral blood from healthy volunteers was collected by routine standard procedure and cultured in 1640 medium (+10% FBS) to obtain PBMC. After recovery, PBMC was centrifuged and resuspended in serum-free medium. After counting, adjusted the density to be 6.25×10^5/ml; then inoculated 160 ul to a 96-well plate, 1×10^5/well; 20 ul 10× compound and DMSO were added, and incubated for 1 hour in an incubator; then 20 ul 10 XLPS was added resulting the final concentration of 1 ug/ml and incubated in an incubator for 72 hours. Centrifuged the cell plate at 1500 rpm and aspirated 50 ul supernatant according to the ELISA operation. After operating according to the kit, a microplate reader was used to read at 450 nm. The concentration of compound was 10 nM, and DMSO was added as control group. Materials used in this experiment: 96 well plate (Corning, #3599), ELISA kit (Thermo), LPS (Sigma, USA)."}, "IL-2": {"tested_on": "IL-2", "assay": "IL-2 expression change in anti-human CD3 stimulated PBMC (ELISA)", "settings": "compound 10 nM, anti-human CD3 10 ug/ml, 24 hours", "procedure": "as §1, with “plate, 2 holes each,” for “plate,”, “ul 10× anti-human CD3” for “ul 10 XLPS”, “of 10” for “of 1”, “for 24” for “for 72”"}},
  "data": [
    {"smiles": "Nc1cccc2c1CN(C1CCC(=O)NC1=O)C2=O", "note": "(stereo not shown) [Lenalidomide, lenalidomide, reference compound]", "values": [
      {"measurement": "IC50", "setting": "[1]", "value": "> 20", "unit": "µM"},
      {"measurement": "IC50", "setting": "Mino cells", "value": "> 20", "unit": "µM"},
      {"measurement": "inhibition at 0.01 µM", "setting": "TNF-α", "value": "< 50", "unit": "%"},
      {"measurement": "Increase multiple of IL-2 Expression", "setting": "IL-2", "value": ">3"}
    ]}
  ]
}
